Common to all, as to type: in vivo
The subject of one data set is soybean. Description: Test Example 5: effect on crop by foliage application, plastic box (symbol d). As to conditions: 320 g/ha, 3 weeks after application. The essentials:
(§1)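 Diluvial soil, sterilized and boxed (21 × 13 × 7 cm), received spot-sown seed covered by about 1.5 cm soil; plants were then greenhouse-grown at 25–30° C.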

A further data set deals with Stellaria media. Description: Test Example 4: herbicidal effect by soil treatment (symbol P). The following applies: application herbicide amount 320 g/ha. The essentials:
(§2)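 Seeds were sown in sterilized diluvial soil, covered with about 1.5 cm of soil, and the soil surface was sprayed with a water-diluted emulsion of the compound at a predetermined rate. Plants grew in a greenhouse at 25° C. to 30° C.; effects were scored visually 3 weeks after application.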

Data set [1] concerns Echinochloa crus-galli var. crus-galli. Description: Test Example 3: herbicidal effect by foliage application, Wagner pot (symbol H). The following applies: application herbicide amount 320 g/ha. The gist of the method:
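Rating at 3 weeks post-spray, by defined criteria. Treatment: emulsion diluted with water to a predetermined amount, applied evenly to foliage of 14-day-old plants raised in alluvial soil flooded 0.1–0.5 cm deep at 25–30 °C, rice co-sown.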

A further data set has as its system Apera spica-venti. Description: Test Example 5: herbicidal effect by foliage application, plastic box (symbol L). The following applies: 320 g/ha, 3 weeks after application. The essentials:
(§3)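 Emulsion formulation, diluted with water to the intended rate, was applied uniformly to leaves by small sprayer. Recipients were 14-day greenhouse-grown seedlings (25° C. to 30° C.). Assessment followed at 3 weeks.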

For another data set, the system named is rice. Description: Test Example 4: effect on crop by soil treatment (symbol b). The following applies: application herbicide amount 320 g/ha. The essentials:
(§4)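 Plants are raised in a greenhouse (25° C. to 30° C.) from spot-sown seed, which sits under about 1.5 cm of sterilized diluvial soil in a box shared with weed species.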

In a further data set the test system is rapeseed. Description: Test Example 5: effect on crop by foliage application, plastic box (symbol g). As to conditions: 320 g/ha, 3 weeks after application. The essentials:
as §1

Data set [2] has as its system wheat. Description: Test Example 4: effect on crop by soil treatment (symbol e). The following applies: application herbicide amount 320 g/ha. The essentials:
as §4

The subject of data set [3] is corn. Description: Test Example 4: effect on crop by soil treatment (symbol c). The following applies: application herbicide amount 320 g/ha. The essentials:
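Crop seed is sown in spots together with several weed species in a box of sterilized diluvial soil. It is covered by about 1.5 cm of soil and kept in a greenhouse held between 25° C. and 30° C.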

The test system of data set [4] is corn. Description: Test Example 5: effect on crop by foliage application, plastic box (symbol c). As to conditions: 320 g/ha, 3 weeks after application. The essentials: as §1
For another data set, the system named is Setaria viridis. Description: Test Example 4: herbicidal effect by soil treatment (symbol G). The following applies: application herbicide amount 320 g/ha. The essentials:
as §2

Data set [5] relates to wheat. Description: Test Example 5: effect on crop by foliage application, plastic box (symbol e). As to conditions: 320 g/ha, 3 weeks after application. The gist of the method: as §1
For a further data set, the system named is Alopecurus myosuroides. Description: Test Example 4: herbicidal effect by soil treatment (symbol J). The following applies: application herbicide amount 320 g/ha. The essentials:
as §2

Another data set has as its system Veronica persica. Description: Test Example 5: herbicidal effect by foliage application, plastic box (symbol R). The following applies: 320 g/ha, 3 weeks after application. The essentials: as §3
The test system of a further data set is Digitaria ciliaris. Description: Test Example 5: herbicidal effect by foliage application, plastic box (symbol F). As to conditions: 320 g/ha, 3 weeks after application. The essentials:
as §3

The test system of the next data set is Lolium multiflorum Lam. Description: Test Example 4: herbicidal effect by soil treatment (symbol K). As to conditions: application herbicide amount 320 g/ha. The essentials:
as §2

Data set [6] concerns Echinochloa crus-galli var. crus-galli. Description: Test Example 4: herbicidal effect by soil treatment (symbol H). As to conditions: application herbicide amount 320 g/ha. The essentials:
as §2

For another data set, the system named is Scirpus juncoides. Description: Test Example 1: herbicidal activity, application before weed generation in submerged conditions (symbol B). The following applies: application herbicide amount 320 g/ha. The gist of the method: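 Steps: alluvial soil flooded to 4 cm; weed seeds sown together; rice seedlings (2.5 leaf) transplanted; diluted emulsion applied to water surface the same day as sowing; plants grown at 25–30 °C in greenhouse; herbicidal effect rated on a 0–5 scale at 3 weeks.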

For the compound `CC(=O)CC1CC(O)=C(c2c(C)cc(-c3ncccn3)cc2C)C1=O` (stereo not shown) [7-017], the “d: soybean, effect on crop (criteria of Test Example 1)” value with soybean is reported as 0 (Herbicidal ratio of 5% or lower (almost no effect)). Moreover, the “Herbicidal effect grade, P: Stellaria media” value (“Herbicidal effect grade, P” for short) in the data set with Stellaria media is on record as 0 (Herbicidal ratio of 5% or lower (almost no effect)). For the same compound, the “herbicidal effect on H (Echinochloa crus-galli var. crus-galli), grade 0-5” value (“herbicidal effect on H” for short) in data set [1] is recorded as 5 (Herbicidal ratio of 90% or more (almost completely withered)). For the same compound, the “L: Apera spica-venti, herbicidal effect (criteria of Test Example 1)” value with Apera spica-venti is 3 (Herbicidal ratio of 40% or higher and lower than 70%). In addition, in the data set on rice, the “Effect on crop grade, b: directly sowed rice plant” value (shortened to “Effect on crop grade, b”) was 0 (Herbicidal ratio of 5% or lower (almost no effect)). Further, in the data set on rapeseed, the “g: rapeseed, effect on crop (criteria of Test Example 1)” value is 0 (Herbicidal ratio of 5% or lower (almost no effect)). The “Effect on crop grade, e: wheat” value in the data set on wheat [2] is reported as 0 (Herbicidal ratio of 5% or lower (almost no effect)). Moreover, the “Effect on crop grade, c: corn” value with corn [3] is reported as 0 (Herbicidal ratio of 5% or lower (almost no effect)). Further, the “c: corn, effect on crop (criteria of Test Example 1)” value in the data set with corn [4] is listed as 0 (Herbicidal ratio of 5% or lower (almost no effect)). In addition, in the data set on Setaria viridis, the “Herbicidal effect grade, G: Setaria viridis” value (shortened to “Herbicidal effect grade, G”) is listed as 0 (Herbicidal ratio of 5% or lower (almost no effect)). In addition, in the data set on wheat [5], the “e: wheat, effect on crop (criteria of Test Example 1)” value was 0 (Herbicidal ratio of 5% or lower (almost no effect)). In addition, in the data set with Alopecurus myosuroides, the “Herbicidal effect grade, J: Alopecurus myosuroides” value (from here on “Herbicidal effect grade, J”) is given as 0 (Herbicidal ratio of 5% or lower (almost no effect)). In the data set on Veronica persica, the “R: Veronica persica, herbicidal effect (criteria of Test Example 1)” value is 0 (Herbicidal ratio of 5% or lower (almost no effect)). Further, the “F: Digitaria ciliaris, herbicidal effect (criteria of Test Example 1)” value in the data set on Digitaria ciliaris was 5 (Herbicidal ratio of 90% or more (almost completely withered)). Besides, in the data set with Lolium multiflorum Lam., the “Herbicidal effect grade, K: Lolium multiflorum Lam.” value (shortened to “Herbicidal effect grade, K”) is 0 (Herbicidal ratio of 5% or lower (almost no effect)). In addition, the “Herbicidal effect grade, H: Echinochloa crus-galli var. crus-galli” value (from here on “Herbicidal effect grade, H”) in data set [6] is reported as 0 (Herbicidal ratio of 5% or lower (almost no effect)).

In the case of `CC(CC1CC(O)=C(c2c(C)cc(Br)cc2C)C1=O)=NOCC(=O)N(C)C` (mixture of isomers) [9-029], the “d: soybean, effect on crop grade” value in the data set with soybean is given as 0 (Herbicidal ratio of 5% or lower (almost no effect)). In addition, the “Herbicidal effect grade, P” value with Stellaria media is 0 (Herbicidal ratio of 5% or lower (almost no effect)). In addition, in data set [1] (Table 24), the “H (Echinochloa crus-galli var. crus-galli) herbicidal effect grade” value is 4 (Herbicidal ratio of 70% or higher and lower than 90%). Further, the “L: Apera spica-venti, herbicidal effect grade” value in the data set with Apera spica-venti was 4 (Herbicidal ratio of 70% or higher and lower than 90%). For the same compound, the “Effect on crop grade, b” value in the data set on rice was 1 (Herbicidal ratio of 5% or higher and lower than 20%). In addition, the “g: rapeseed, effect on crop grade” value with rapeseed was 4 (Herbicidal ratio of 70% or higher and lower than 90%). For the same compound, in the data set with wheat [2], the “Effect on crop grade, e: wheat” value is recorded as 0 (Herbicidal ratio of 5% or lower (almost no effect)). Moreover, in the data set with corn [3], the “Effect on crop grade, c: corn” value is on record as 0 (Herbicidal ratio of 5% or lower (almost no effect)). Further, the “c: corn, effect on crop grade” value in the data set on corn [4] is 4 (Herbicidal ratio of 70% or higher and lower than 90%). The “Herbicidal effect grade, G” value in the data set with Setaria viridis is 4 (Herbicidal ratio of 70% or higher and lower than 90%). In the data set with wheat [5], the “e: wheat, effect on crop grade” value is 4 (Herbicidal ratio of 70% or higher and lower than 90%). The “Herbicidal effect grade, J” value with Alopecurus myosuroides was 3 (Herbicidal ratio of 40% or higher and lower than 70%). Also, the “R: Veronica persica, herbicidal effect grade” value with Veronica persica is on record as 0 (Herbicidal ratio of 5% or lower (almost no effect)). Further, the “F: Digitaria ciliaris, herbicidal effect grade” value in the data set on Digitaria ciliaris was 3 (Herbicidal ratio of 40% or higher and lower than 70%). For the same compound, the “Herbicidal effect grade, K” value with Lolium multiflorum Lam. was 4 (Herbicidal ratio of 70% or higher and lower than 90%). Further, the “Herbicidal effect grade, H” value in data set [6] is 3 (Herbicidal ratio of 40% or higher and lower than 70%).

Take `CC(=O)CC1CC(O)=C(c2c(C)cc(Oc3ccccc3)cc2C)C1=O` (stereo not shown) [7-014]: the “d: soybean, effect on crop (criteria of Test Example 1)” value with soybean was 0 (Herbicidal ratio of 5% or lower (almost no effect)). In the data set with Stellaria media, the “Herbicidal effect grade, P” value was 0 (Herbicidal ratio of 5% or lower (almost no effect)). The “herbicidal effect on H” value in [1] was 4 (Herbicidal ratio of 70% or higher and lower than 90%). Further, in the data set with Apera spica-venti, the “L: Apera spica-venti, herbicidal effect (criteria of Test Example 1)” value is 0 (Herbicidal ratio of 5% or lower (almost no effect)). Also, in the data set on rice, the “Effect on crop grade, b” value was 4 (Herbicidal ratio of 70% or higher and lower than 90%). Moreover, the “g: rapeseed, effect on crop (criteria of Test Example 1)” value with rapeseed was 1 (Herbicidal ratio of 5% or higher and lower than 20%). Further, in the data set with wheat [2], the “Effect on crop grade, e: wheat” value is given as 0 (Herbicidal ratio of 5% or lower (almost no effect)). In the data set on corn [3], the “Effect on crop grade, c: corn” value is given as 0 (Herbicidal ratio of 5% or lower (almost no effect)). The “c: corn, effect on crop (criteria of Test Example 1)” value in the data set on corn [4] is 3 (Herbicidal ratio of 40% or higher and lower than 70%). Moreover, the “Herbicidal effect grade, G” value in the data set on Setaria viridis was 2 (Herbicidal ratio of 20% or higher and lower than 40%). Also, the “e: wheat, effect on crop (criteria of Test Example 1)” value in the data set on wheat [5] is on record as 0 (Herbicidal ratio of 5% or lower (almost no effect)). The “Herbicidal effect grade, J” value in the data set on Alopecurus myosuroides is reported as 0 (Herbicidal ratio of 5% or lower (almost no effect)). For the same compound, in the data set on Veronica persica, the “R: Veronica persica, herbicidal effect (criteria of Test Example 1)” value was 0 (Herbicidal ratio of 5% or lower (almost no effect)). For the same compound, the “F: Digitaria ciliaris, herbicidal effect (criteria of Test Example 1)” value in the data set with Digitaria ciliaris is 5 (Herbicidal ratio of 90% or more (almost completely withered)). Also, the “Herbicidal effect grade, K” value with Lolium multiflorum Lam. was 3 (Herbicidal ratio of 40% or higher and lower than 70%). Further, the “Herbicidal effect grade, H” value in data set [6] is recorded as 0 (Herbicidal ratio of 5% or lower (almost no effect)).

Consider `COCCOC1=C(c2c(C)cc(C)cc2C)C(=O)C(CC(C)=NOC)C1` (stereo not shown) [1-037], for which the “d: soybean, effect on crop grade” value with soybean was 0 (Herbicidal ratio of 5% or lower (almost no effect)). Further, the “P (Stellaria media) herbicidal effect grade” value in the data set with Stellaria media is 0 (Herbicidal ratio of 5% or lower (almost no effect)). Moreover, the “herbicidal effect on H” value in [1] is 0 (Herbicidal ratio of 5% or lower (almost no effect)). Besides, in the data set with Apera spica-venti, the “L: Apera spica-venti, herbicidal effect grade” value is 0 (Herbicidal ratio of 5% or lower (almost no effect)). Moreover, the “b (directly sowed rice plant) effect on crop grade” value in the data set on rice is 0 (Herbicidal ratio of 5% or lower (almost no effect)). The “g: rapeseed, effect on crop grade” value in the data set on rapeseed is recorded as 0 (Herbicidal ratio of 5% or lower (almost no effect)). In addition, in the data set on Scirpus juncoides, the “Herbicidal effect grade, B: Scirpus juncoides” value is on record as 0 (Herbicidal ratio of 5% or lower (almost no effect)). The “e (wheat) effect on crop grade” value in the data set with wheat [2] is 0 (Herbicidal ratio of 5% or lower (almost no effect)). Moreover, the “c (corn) effect on crop grade” value in the data set with corn [3] is 0 (Herbicidal ratio of 5% or lower (almost no effect)). Also, in the data set on corn [4], the “c: corn, effect on crop grade” value is listed as 0 (Herbicidal ratio of 5% or lower (almost no effect)). Moreover, in the data set on Setaria viridis, the “G (Setaria viridis) herbicidal effect grade” value is on record as 0 (Herbicidal ratio of 5% or lower (almost no effect)). For the same compound, the “e: wheat, effect on crop grade” value with wheat [5] is given as 0 (Herbicidal ratio of 5% or lower (almost no effect)). Further, in the data set with Alopecurus myosuroides, the “J (Alopecurus myosuroides) herbicidal effect grade” value was 0 (Herbicidal ratio of 5% or lower (almost no effect)). For the same compound, the “F: Digitaria ciliaris, herbicidal effect grade” value in the data set with Digitaria ciliaris was 0 (Herbicidal ratio of 5% or lower (almost no effect)). In addition, in the data set with Lolium multiflorum Lam., the “K (Lolium multiflorum Lam.) herbicidal effect grade” value was 0 (Herbicidal ratio of 5% or lower (almost no effect)). In addition, in data set [6], the “H (Echinochloa crus-galli var. crus-galli) herbicidal effect grade” value is given as 0 (Herbicidal ratio of 5% or lower (almost no effect)).

These data come from US11000033B2, “Ketone or oxime compound, and herbicide” (NISSAN CHEMICAL CORPORATION, priority 2014, dated 2021).
